Earlier results in patent EP0467998B1, “PEPTIDES FROM RETINOBLASTOMA GENE PRODUCTS AND ANTIBODIES THERETO” (BAYLOR COLLEGE OF MEDICINE, priority 1989, dated 1990).

Conditions: individual amino acid, Hopp and Woods (1981)

Hydrophilicity Value	SMILES
-1.5	CC(C)[C@H](N)C(=O)O [Val]
0.0	NCC(=O)O [Gly]
-2.3	N[C@@H](Cc1ccc(O)cc1)C(=O)O [Tyr]
-2.5	N[C@@H](Cc1ccccc1)C(=O)O [Phe]
0.0	O=C(O)[C@@H]1CCCN1 [Pro]
0.2	NC(=O)C[C@H](N)C(=O)O [Asn]
-1.3	CSCC[C@H](N)C(=O)O [Met]
-0.4	C[C@@H](O)[C@H](N)C(=O)O [Thr]
-3.4	N[C@@H](Cc1c[nH]c2ccccc12)C(=O)O [Trp]
3.0	N[C@@H](CCC(=O)O)C(=O)O [Glu]
-1.8	CC[C@H](C)[C@H](N)C(=O)O [Ile]
3.0	NCCCC[C@H](N)C(=O)O [Lys]
-1.0	N[C@@H](CS)C(=O)O [Cys]
-0.5	N[C@@H](Cc1c[nH]cn1)C(=O)O [His]
-0.5	C[C@H](N)C(=O)O [Ala]
0.3	N[C@@H](CO)C(=O)O [Ser]
3.0	N[C@@H](CC(=O)O)C(=O)O [Asp]

SMILES	Hydrophilicity Value
N=C(N)NCCC[C@H](N)C(=O)O [Arg]	3.0
